Measured values: PMC10657444, “Design and evaluation of tadpole-like conformational antimicrobial peptides” (Communications Biology, 2023)
≈ marks a conversion by molar mass, not a printed value. Read-outs that look alike come from different tables or passages of the source. Non-standard residues stand in square brackets, D forms with d. Residues, ends and D or L forms follow the SMILES beside them. *: point of attachment. Octanoyl = CCCCCCCC(=O)*

Tests used:
MRSA 3393 = assay type: cell-based, Staphylococcus aureus
From the text: (§1) Bacteria were cultivated in Luria-Bertani (LB) broth.

MRSA ATCC 43300 = assay type: cell-based, Staphylococcus aureus
From the text: as §1

MRSA USA 300 = assay type: cell-based, Staphylococcus aureus
From the text: as §1

E. coli ATCC 25922 = assay type: cell-based, Escherichia coli
From the text: as §1

E. coli S = assay type: cell-based, Escherichia coli
From the text: as §1

A. baumannii 1318 = assay type: cell-based, Acinetobacter baumannii
From the text: as §1

A. baumannii 1337 = assay type: cell-based, Acinetobacter baumannii
From the text: as §1

K. pneumoniae 3026 = assay type: cell-based, Klebsiella pneumoniae
From the text: as §1

[1] = test system: K. pneumoniae ATCC 700603; assay type: cell-based, Klebsiella pneumoniae
From the text: as §1

MIC Gram+ MRSA 3393 (MRSA 3393; 3393) [µM]	MIC Gram+ MRSA ATCC 43300 (MRSA ATCC 43300; ATCC 43300) [µM]	MIC Gram+ MRSA USA 300 (MRSA USA 300) [µM]	MIC Gram- E. coli ATCC 25922 (E. coli ATCC 25922) [µM]	MIC Gram- E. coli S (E. coli S) [µM]	MIC Gram- A. b 1318 (A. baumannii 1318) [µM]	MIC Gram- A. b 1337 (A. baumannii 1337) [µM]	MIC Gram- K. p 3026 (K. pneumoniae 3026) [µM]	MIC Gram- K. p ATCC 700603 [1] [µM]	MIC Gram+ MRSA 3393 (MRSA 3393) [µM]	MIC Gram+ MRSA ATCC 43300 (MRSA ATCC 43300) [µM]	Compound
6.25 (≈ 9.05 µg/mL)	6.25 (≈ 9.05 µg/mL)	6.25 (≈ 9.05 µg/mL)	50 (≈ 72.4 µg/mL)	25 (≈ 36.2 µg/mL)	6.25 (≈ 9.05 µg/mL)	12.5 (≈ 18.1 µg/mL)	> 100	100 (≈ 145 µg/mL)			CC[C@@H](C)[C@@H](NC(=O)[C@@H](CCCNC(=N)N)NC(=O)[C@@H](CCCNC(=N)N)NC(=O)[C@@H](CC(C)C)NC(=O)[C@@H](Cc1ccccc1)NC(=O)[C@H](N)CCCNC(=N)N)C(=O)N[C@H](Cc1ccccc1)C(=O)N[C@H](Cc1ccccc1)C(=O)N[C@H](Cc1ccccc1)C(=O)N[C@H](Cc1ccccc1)C(N)=O [D-HT2] (H-[dR][dF][dL][dR][dR][dI][dF][dF][dF][dF]-NH2; N-terminus assumed)
3.13 (≈ 4.04 µg/mL)	3.13 (≈ 4.04 µg/mL)	3.13 (≈ 4.04 µg/mL)	> 100	25 (≈ 32.3 µg/mL)	25 (≈ 32.3 µg/mL)	25 (≈ 32.3 µg/mL)	> 100	> 100			CC[C@H](C)[C@H](NC(=O)[C@@H](CCCNC(=N)N)NC(=O)[C@H](CCCNC(=N)N)NC(=O)[C@H](CC(C)C)NC(=O)[C@H](Cc1ccccc1)NC(=O)[C@H](Cc1ccccc1)NC(=O)[C@H](Cc1ccccc1)NC(=O)[C@@H](N)Cc1ccccc1)C(=O)N[C@@H](Cc1ccccc1)C(N)=O [F-SHf(R^5,dR^6)] (H-FFFFLR[dR]IF-NH2; N-terminus assumed)
3.13 (≈ 4.04 µg/mL)	3.13 (≈ 4.04 µg/mL)	3.13 (≈ 4.04 µg/mL)	> 100	25 (≈ 32.3 µg/mL)	25 (≈ 32.3 µg/mL)	25 (≈ 32.3 µg/mL)	> 100	> 100			CC[C@H](C)[C@H](NC(=O)[C@H](CCCNC(=N)N)NC(=O)[C@@H](CCCNC(=N)N)NC(=O)[C@H](CC(C)C)NC(=O)[C@H](Cc1ccccc1)NC(=O)[C@H](Cc1ccccc1)NC(=O)[C@H](Cc1ccccc1)NC(=O)[C@@H](N)Cc1ccccc1)C(=O)N[C@@H](Cc1ccccc1)C(N)=O [F-SHf(dR^5)] (H-FFFFL[dR]RIF-NH2; N-terminus assumed)
3.13 (≈ 4.04 µg/mL)	3.13 (≈ 4.04 µg/mL)	3.13 (≈ 4.04 µg/mL)	> 100	6.25 (≈ 8.07 µg/mL)	12.5 (≈ 16.1 µg/mL)	25 (≈ 32.3 µg/mL)	25 (≈ 32.3 µg/mL)	25 (≈ 32.3 µg/mL)			CC[C@H](C)[C@H](NC(=O)[C@@H](CCCNC(=N)N)NC(=O)[C@@H](CCCNC(=N)N)NC(=O)[C@H](CC(C)C)NC(=O)[C@H](Cc1ccccc1)NC(=O)[C@H](Cc1ccccc1)NC(=O)[C@H](Cc1ccccc1)NC(=O)[C@@H](N)Cc1ccccc1)C(=O)N[C@@H](Cc1ccccc1)C(N)=O [F-SHf(dR^5, 6)] (H-FFFFL[dR][dR]IF-NH2; N-terminus assumed)
	1.57 (≈ 2.26 µg/mL)	3.13 (≈ 4.5 µg/mL)	> 100	100 (≈ 144 µg/mL)	50 (≈ 71.9 µg/mL)	> 100	> 100	> 100	1.57 (≈ 2.26 µg/mL)	1.57 (≈ 2.26 µg/mL)	CC[C@H](C)[C@H](NC(=O)[C@H](CCCNC(=N)N)NC(=O)[C@H](CCCNC(=N)N)NC(=O)[C@H](CC(C)C)NC(=O)[C@H](Cc1ccccc1)NC(=O)[C@H](Cc1ccccc1)NC(=O)[C@H](Cc1ccccc1)NC(=O)[C@H](Cc1ccccc1)NC(=O)[C@@H](N)Cc1ccccc1)C(=O)N[C@@H](Cc1ccccc1)C(N)=O [FF-SHf(R^5)] (H-FFFFFLRRIF-NH2; N-terminus assumed)
> 100	50 (≈ 45.4 µg/mL)	> 100	> 100	> 100	> 100	> 100	> 100	> 100			CCCCCCCC(=O)N[C@@H](Cc1ccccc1)C(=O)N[C@@H](CC(C)C)C(=O)N[C@@H](CO)C(=O)N[C@@H](CCCNC(=N)N)C(=O)N[C@H](C(=O)N[C@@H](Cc1ccccc1)C(N)=O)[C@@H](C)CC [OA-SHf] (Octanoyl-FLSRIF-NH2)
> 100	> 100	> 100	> 100	> 100	> 100	> 100	> 100	> 100			CC[C@H](C)[C@H](NC(=O)[C@H](CCCNC(=N)N)NC(=O)[C@H](CCC(=O)O)NC(=O)[C@H](CC(C)C)NC(=O)[C@H](Cc1ccccc1)NC(=O)[C@H](Cc1ccccc1)NC(=O)[C@@H](N)Cc1ccccc1)C(=O)N[C@@H](Cc1ccccc1)C(N)=O [SHf(E^5)] (H-FFFLERIF-NH2; N-terminus assumed)
	> 100		> 100	> 100	> 100	> 100	> 100	> 100			CC[C@H](C)[C@H](NC(=O)[C@H](CCCNC(=N)N)NC(=O)[C@H](CO)NC(=O)[C@H](CC(C)C)NC(=O)[C@H](Cc1ccccc1)NC(=O)[C@H](Cc1ccccc1)NC(=O)[C@@H](N)Cc1ccc(O)cc1)C(=O)N[C@@H](Cc1ccccc1)C(N)=O [SHf(Y^1)] (H-YFFLSRIF-NH2; N-terminus assumed)
> 100	> 100	> 100	> 100	> 100	> 100	> 100	> 100	> 100			CC[C@H](C)[C@H](NC(=O)[C@H](CCCNC(=N)N)NC(=O)[C@H](CO)NC(=O)[C@H](CC(C)C)NC(=O)[C@H](Cc1ccccc1)NC(=O)[C@@H](N)Cc1ccccc1)C(=O)N[C@@H](Cc1ccccc1)C(N)=O [SHfΔ1F] (H-FFLSRIF-NH2)
> 100	> 100	> 100	> 100	> 100	> 100	> 100	> 100	> 100			CC[C@H](C)[C@H](NC(=O)[C@H](CCCNC(=N)N)NC(=O)[C@H](CO)NC(=O)[C@H](CC(C)C)NC(=O)[C@@H](N)Cc1ccccc1)C(=O)N[C@@H](Cc1ccccc1)C(N)=O [SHfΔ2F] (H-FLSRIF-NH2; N-terminus assumed)
3.13 (≈ 4.09 µg/mL)	3.13 (≈ 4.09 µg/mL)	6.25 (≈ 8.17 µg/mL)	50 (≈ 65.4 µg/mL)	> 100	> 100	50 (≈ 65.4 µg/mL)	> 100	> 100			CC[C@H](C)[C@H](NC(=O)[C@H](CCCNC(=N)N)NC(=O)[C@H](CCCNC(=N)N)NC(=O)[C@H](CC(C)C)NC(=O)[C@H](Cc1ccccc1)NC(=O)[C@H](Cc1ccccc1)NC(=O)[C@H](Cc1ccccc1)NC(=O)[C@@H](N)Cc1ccc(O)cc1)C(=O)N[C@@H](Cc1ccccc1)C(N)=O [Y-SHf(R^5)] (H-YFFFLRRIF-NH2; N-terminus assumed)
			> 100	> 100	> 100	> 100	> 100	> 100			CC[C@H](C)[C@H](NC(=O)[C@H](CCCNC(=N)N)NC(=O)[C@H](CO)NC(=O)[C@H](CC(C)C)NC(=O)[C@H](Cc1ccccc1)NC(=O)[C@H](Cc1ccccc1)NC(=O)[C@H](Cc1ccc(O)cc1)NC(=O)[C@@H](N)Cc1ccc(O)cc1)C(=O)N[C@@H](Cc1ccccc1)C(N)=O [Y-SHf(Y^1)] (H-YYFFLSRIF-NH2; N-terminus assumed)
12.5 (≈ 15.5 µg/mL)	12.5 (≈ 15.5 µg/mL)	12.5 (≈ 15.5 µg/mL)	> 100	> 100	> 100	> 100	> 100	> 100			CC[C@H](C)[C@H](NC(=O)[C@H](CCCNC(=N)N)NC(=O)[C@H](CO)NC(=O)[C@H](CC(C)C)NC(=O)[C@H](Cc1ccccc1)NC(=O)[C@H](Cc1ccccc1)NC(=O)[C@H](Cc1ccccc1)NC(=O)[C@@H](N)Cc1ccc(O)cc1)C(=O)N[C@@H](Cc1ccccc1)C(N)=O [Y-SHf] (H-YFFFLSRIF-NH2; N-terminus assumed)
